From the PolyMetriX glass transition set
± gives the standard deviation of the reports.

SMILES	glass transition temperature [°C]
*c1ccc(OC(=O)c2cccc(C(=O)Oc3ccc(C4(*)OC(=O)c5ccccc54)cc3)c2)cc1 (repeat unit)	282.50
*Oc1ccc(CC(NC(=O)CCc2ccc(OC(=O)COCC(*)=O)cc2)C(=O)OCCCCCCCC)cc1 (repeat unit)	40.00
*c1ccc2c(c1)Sc1cc(-c3ccc(-c4ccc(*)s4)s3)ccc1N2CCCCCCCCCCCC (repeat unit)	150.00
*Oc1ccc(Oc2ccc(NC(=O)c3cc(C(=O)Nc4ccc(*)cc4)cc(C(C)(C)C)c3)cc2)cc1 (repeat unit)	195.50
*c1ccc2c(c1)C(=O)N(c1cccc(C(O)c3cccc(N4C(=O)c5ccc(C(*)(C(F)(F)F)C(F)(F)F)cc5C4=O)c3)c1)C2=O (repeat unit)	262.00
*Oc1ccc(C(C)(C)c2ccc(OC(=O)c3cccc(C(F)(F)C(F)(F)C(F)(F)c4cccc(C(*)=O)c4)c3)cc2)cc1 (repeat unit)	122.00
*CC(=O)NCCCCCCNC(=O)COC(=O)CCC(=O)O* (repeat unit)	30.00
*CC(*)C(=O)c1ccc(CC)cc1 (repeat unit)	49.2
*c1ccc(C(=O)Nc2ccc(Oc3ccc(Oc4ccc(NC(=O)c5ccc(Oc6ccc(-c7nn(*)c(=O)c8ccccc78)c7ccccc67)cc5)cc4)cc3)cc2)cc1 (repeat unit)	289.50
*CCCCCCN1C(=O)c2ccc(Oc3ccc4c(c3)C(=O)N(*)C4=O)cc2C1=O (repeat unit)	164.00
*Oc1ccc(Oc2ccc(OC(=O)c3cccc(C(*)=O)c3)cc2)cc1 (repeat unit)	164.50
*Oc1ccc(C2(c3ccc(OC(=O)CCCC(*)=O)cc3)c3cc(OC)ccc3-c3ccc([N+](=O)[O-])cc32)cc1 (repeat unit)	197.00
*c1ccc(Oc2cccc(Oc3ccc(N4C(=O)c5ccc(Oc6ccc(Oc7ccc(Oc8ccc9c(c8)C(=O)N(*)C9=O)cc7)cc6)cc5C4=O)cc3)c2)cc1 (repeat unit)	184.00
*OP(=O)(Oc1ccccc1)Oc1c(Br)cc(C(c2cc(Br)c(*)c(Br)c2)(C(F)(F)F)C(F)(F)F)cc1Br (repeat unit)	140.00
*CC(OCC)C1C(=O)OC(=O)C1* (repeat unit)	146.00
*CC1CCCC(CN2C(=O)c3ccc(-c4ccc5c(c4)C(=O)N(*)C5=O)cc3C2=O)C1 (repeat unit)	234.00
*C/C=C/C[Si](*)(C)C (repeat unit)	-57.50
*CC(*)(C)C(=O)NC(=O)OC(C)COc1ccc(S(=O)(=O)c2ccc(OCC(C)O)cc2)cc1 (repeat unit)	73.00
*c1ccc(Oc2ccc(-c3nc4ccc(-c5ccc6nc(*)c(-c7ccccc7)c(-c7ccccc7)c6c5)cc4c(-c4ccccc4)c3-c3ccccc3)cc2)cc1 (repeat unit)	300.00
*CC(=O)Nc1ccc(NC(=O)CN2C(=O)c3ccc(C(=O)c4ccc5c(c4)C(=O)N(*)C5=O)cc3C2=O)cc1 (repeat unit)	250.00
*c1ccc(Oc2ccc(Oc3ccc(N4C(=O)c5ccc(Oc6ccc7c(c6)C(=O)N(*)C7=O)cc5C4=O)cc3C(F)(F)F)cc2)cc1 (repeat unit)	232.30
*Oc1ccc(*)cc1 (repeat unit)	85.00
*c1ccc(Nc2c(F)c(F)c(-c3c(F)c(F)c(Nc4ccc(S(*)(=O)=O)cc4)c(F)c3F)c(F)c2F)cc1 (repeat unit)	332.00

SMILES	glass transition temperature [°C]
*Cc1ccc(CNC(=O)CCCCCCCCCCC(=O)N*)cc1 (repeat unit)	105.00
*C(=O)c1ccc2c(c1)C(=O)N(c1ccc(N3C(=O)c4ccc(*)cc4C3=O)c(S(=O)(=O)[O][Na])c1)C2=O (repeat unit)	214.00
*Oc1cccc2ccc(Oc3ccc(NC(=O)c4ccc(S(=O)(=O)c5ccc(C(=O)Nc6ccc(*)cc6)cc5)cc4)cc3)cc12 (repeat unit)	259.00
*CC(OC(C)=O)C(COC(=O)O*)OC(C)=O (repeat unit)	58.60
*CCSSSSCCO* (repeat unit)	-40.00
*Oc1ccc(C(c2ccc(OC(=O)c3ccccc3-c3ccccc3C(*)=O)cc2)(C(F)(F)F)C(F)(F)F)cc1 (repeat unit)	162.00
*Cc1ccc(CSSSS*)cc1 (repeat unit)	3.00
*CCCN(*)C(=O)C(F)(F)C(F)(F)C(F)(F)C(F)(F)C(F)(F)C(F)(F)C(F)(F)F (repeat unit)	25.00
*c1ccc(-c2ccc(N(c3ccccc3)c3ccc(-c4ccc(N(c5ccccc5)c5ccc(-c6ccc(-n7c(=O)c8cc9c(=O)n(*)c(=O)c9cc8c7=O)cc6)cc5)cc4)cc3)cc2)cc1 (repeat unit)	220.00
*Nc1ccc(*)cc1OCCCCCCCCCCOc1ccc(C2CCC(CCCCC)CC2)cc1 (repeat unit)	64.50
*Oc1cccc(NC(=O)c2ccc(Oc3ccc(C(C)(C)c4cccc(C(C)(C)c5ccc(Oc6ccc(C(=O)Nc7ccc(*)cc7)cc6)cc5)c4)cc3)cc2)c1 (repeat unit)	147.00
*CC(*)C(=O)OCC(F)(F)C(F)(F)C(F)(F)F (repeat unit)	-30.00
*Oc1ccc(S(=O)(=O)c2ccc(Oc3ccc(-c4ccc(-c5ccc(*)cc5)cc4)cc3)cc2)cc1 (repeat unit)	251.00
*C1C(*)C2CC1C(C(=O)OCCC1CC3CCC1C3)C2C(=O)OCCC1CC2CCC1C2 (repeat unit)	260.00
*CC(O)COc1ccc(C(C)(C)c2ccc(OCC(O)COc3c(C)cc(S(=O)(=O)c4cc(C)c(O*)c(C)c4)cc3C)cc2)cc1 (repeat unit)	137.50
*O[Si](*)(c1ccccc1)c1ccc(OC(C)(C)C)cc1 (repeat unit)	56.00
*Oc1ccc(NC(=O)c2cc(-c3ccc(C(=O)O)c(C(=O)Nc4ccc(*)cc4)c3)ccc2C(=O)O)cc1 (repeat unit)	184.40
*c1ccc(Oc2ccc(C(C)(C)c3ccc(Oc4ccc(N5C(=O)C6CCC7C(=O)N(*)C(=O)C7C6C5=O)cc4)cc3)cc2)cc1 (repeat unit)	263.50
*c1cccc(S(=O)(=O)NCCCNS(*)(=O)=O)c1 (repeat unit)	92.00
*c1ccc(-c2ccc(-n3c(-c4ccc(Oc5ccc(C(=O)c6ccc(C(=O)c7ccc(Oc8ccc(-c9nc%10ccccc%10n9*)cc8)cc7)cc6)cc5)cc4)nc4ccccc43)cc2)cc1 (repeat unit)	259.00
*c1ncnc(N(CCCCCCN(*)c2ccccc2)c2ccccc2)n1 (repeat unit)	72.00
*Oc1ccc(C(C)(C)c2ccc(OC(=O)Nc3cccc(P(=O)(c4ccccc4)c4cccc(NC(*)=O)c4)c3)cc2)cc1 (repeat unit)	62.00
*CC(*)C(=O)OCC(F)(F)C(F)(F)C(F)(F)C(F)(F)C(F)(F)F (repeat unit)	-39.00

SMILES	glass transition temperature [°C]
*Oc1ccc(S(=O)(=O)c2ccc(Oc3ccc(C4(c5ccc(Oc6ccc(S(=O)(=O)c7ccc(Oc8ccc(/C=C9\CC/C(=C\c%10ccc(*)cc%10)C9=O)cc8)cc7)cc6)cc5)CCCC4)cc3)cc2)cc1 (repeat unit)	240.00
*CCCCCCOC(=O)OCCCOC(=O)OCCCCCCOc1ccc(Oc2ccc(O*)cc2)cc1 (repeat unit)	-6.00
*c1ccc(Oc2ccc(NC(=O)c3ccc(Oc4ccc5c(c4)C(=O)N(*)C5=O)cc3)cc2)cc1 (repeat unit)	262.00
*CC(*)CC[Si](C)(C)C (repeat unit)	132.00
*C1CCCCC1S(*)(=O)=O (repeat unit)	77.00
*CC(*)(C)C(=O)OCCN(CC)c1ccccc1 (repeat unit)	37.50
*CCCCCCCCCCOC(=O)NCCCCCCNC(=O)O* (repeat unit)	55.00
*CC(*)OC(=O)C(C)(CC)C(C)(C)C (repeat unit)	120.00
*C(F)(F)C1(F)C(F)(F)C(*)(F)C(F)(F)C(F)(Cl)C1(F)F (repeat unit)	147.00
*CCN(*)C(=O)c1c(F)c(F)cc(F)c1F (repeat unit)	122.00
*Nc1cccc(NC(=O)c2ccc(C(=O)Nc3ccc(C(=O)NC(*)=S)cc3)cc2)c1 (repeat unit)	273.00
*c1ccc(/C=C/c2cc(OCC(CC)CCCC)c(/C=C/c3ccc(N(*)c4ccccc4)cc3)cc2OC)cc1 (repeat unit)	147.00
*Nc1ccc(C2(c3ccc(NC(=O)c4cc(NC(=O)C56CC7CC(CC(C7)C5)C6)cc(C(*)=O)c4)cc3)c3ccccc3-c3ccccc32)cc1 (repeat unit)	370.00
*Oc1ccc(CC(NC(=O)CCc2ccc(OC(=O)CCC(*)=O)cc2)C(=O)OCCCCCCCC)cc1 (repeat unit)	48.00
*C(F)(F)C1(*)OC(F)(F)C(F)(C(F)(F)F)O1 (repeat unit)	135.00
*CC(*)c1ccccc1C(=O)N(C)C (repeat unit)	190.00
*Nc1ccc(N[Se]*)cc1 (repeat unit)	55.00
*CC(*)C=C (repeat unit) [Poly(1,2-butadiene)]	-6.08 ± 1.3
*c1ccc(-c2nc3cc(C)ccc3o2)c(*)c1 (repeat unit)	221.00
*C(=O)Nc1ccc(S(=O)(=O)c2ccc(NC(=O)c3ccc4[nH]c(-c5cccc(-c6nc7cc(*)ccc7[nH]6)c5)nc4c3)cc2)cc1 (repeat unit)	312.00
*Oc1ccc(/C(=C/c2cc(OC)c(/C=C(/c3ccc(*)cc3)c3ccc(C(F)(F)F)cc3)cc2OC)c2ccc(C(F)(F)F)cc2)cc1 (repeat unit)	194.00
*/C=C(\F)C(F)(F)C* (repeat unit)	-35.00
